From ChEMBL document CHEMBL4304757, “Synthetic heterocyclic candidates as promising α-glucosidase inhibitors: An overview” (Eur J Med Chem, 2019) come the findings set out here.

For orientation: IC50 means the midpoint of a concentration-inhibition curve. High values mean weaker potency, low ones greater potency.

Biological target in one test: not listed separately
Briefly: Inhibition of yeast alpha-glucosidase. Set-up: species or system Saccharomyces cerevisiae.
Consider `CC(C)(C)c1ccc(COc2cccc(-c3cc(=O)c4ccccc4o3)c2)cc1`, for which the IC50 fell in the range of 1.2 to 88 µM.
`Cc1cccc(COc2cccc(-c3cc(=O)c4ccccc4o3)c2)c1` had an IC50 of 1.2 to 88 µM.
As to `Cc1cc2c(c(=O)[nH]1)C(=O)O/C2=C\c1cc(-c2ccccc2)cs1`, the IC50 came out at 8.3 µM.
Still for that read-out and setting: in the case of `Cc1cc2c(c(=O)[nH]1)C(=O)O/C2=C\c1cccc(Br)c1` it was 1 to 53 µM; in that of `COc1ccc(-c2csc(/C=C3\OC(=O)c4c3cc(C)[nH]c4=O)c2)cn1`, 8.3 to 86 µM.
Still for that read-out and setting: to `O=c1cc(-c2cccc(OCc3cccc(SC(F)(F)F)c3)c2)oc2ccccc12` belongs 1.2 to 88 µM; to `Cc1cc2c(c(=O)[nH]1)C(=O)O/C2=C\c1cc(Br)cs1`, 0.24 µM.
In the case of `O=c1cc(-c2cccc(OCc3cc(C(F)(F)F)ccc3C(F)(F)F)c2)oc2ccccc12`, 1.2 µM corresponded to half-maximal inhibition (IC50).
Same read-out and setting: to `COc1ccc(COc2cccc(-c3cc(=O)c4ccccc4o3)c2)cc1` belongs 1.2 to 88 µM; to `Cc1cc2c(c(=O)[nH]1)C(=O)O/C2=C\c1ccccc1C(F)(F)F`, 1 to 53 µM; to `Cc1cc2c(c(=O)[nH]1)C(=O)O/C2=C\c1nccn1C`, 0.9 µM.
The same measure, in the same setting: in the case of `Cc1cc2c(c(=O)[nH]1)C(=O)O/C2=C\c1cc(-c2ccnc(N3CCN(C(=O)OC(C)(C)C)CC3)c2)cs1` it was 8.3 to 86 µM.
Same read-out and setting: in the case of `O=c1cc(-c2cccc(OCc3ccccc3)c2)oc2ccccc12` it was 1.2 to 88 µM; in that of `Cc1cc2c(c(=O)[nH]1)C(=O)O/C2=C\c1cccs1`, 0.24 to 10 µM; in that of `Cc1cc2c(c(=O)[nH]1)C(=O)O/C2=C\c1ccc(O)c(O)c1`, 1 to 53 µM.
Turning to `Cc1cc2c(c(=O)[nH]1)C(=O)O/C2=C\c1ccc(F)c(F)c1`, inhibition was half-maximal at 1 µM (IC50).
Compound `N#Cc1ccc(COc2cccc(-c3cc(=O)c4ccccc4o3)c2)cc1` displayed an IC50 of 1.2 to 88 µM.
Still for that read-out and setting: in the case of `Cc1cc2c(c(=O)[nH]1)C(=O)O/C2=C\c1ccc(Br)cc1` it was 1 to 53 µM.
Same read-out and setting: in the case of `O=c1cc(-c2cccc(OCc3cccc(F)c3F)c2)oc2ccccc12` it was 3.4 µM; in that of `N#Cc1cccc(COc2cccc(-c3cc(=O)c4ccccc4o3)c2)c1`, 1.2 to 88 µM; in that of `O=c1cc(-c2cccc(OCc3ccc([N+](=O)[O-])cc3)c2)oc2ccccc12`, 1.2 to 88 µM.
With `Cc1cc2c(c(=O)[nH]1)C(=O)O/C2=C\c1ccccc1`, the IC50 lay in the range of 1 to 53 µM.

The target in another test is T1, Alpha glucosidase (Homo sapiens, UniProt O43451+P10253+P14410+Q2M2H8). The experiment in a line: Inhibition of alpha-glucosidase (unknown origin) using p-nitrophenyl-alpha-d-glucopyranoside as substrate preincubated for 5 mins followed by substrate addition measured after 5 mins. It counts as protein assay.
In turn, `O=C(N/N=C/c1ccncc1)c1cc2ccccc2oc1=O` came in with an IC50 of 1.1 to 36 µM.
Same read-out and setting: in the case of `Cc1ccccc1/C=N/NC(=O)c1cc2ccccc2oc1=O` it was 1.1 to 36 µM; in that of `O=C(N/N=C/c1ccccc1F)c1cc2ccccc2oc1=O`, 1.1 to 36 µM; in that of `O=C(N/N=C/c1ccccc1O)c1cc2ccccc2oc1=O`, 1.1 to 36 µM.
The same measure, in the same setting: to `COc1cccc(-c2nnc(N)s2)c1OC` belongs 2.3 to 38 µM; to `Oc1ccc(/C=N/c2nnc(-c3ccc(Cl)cc3)s2)cc1`, 2.3 µM; to `Nc1nnc(-c2ccc(OCc3ccccc3)cc2)s1`, 2.3 to 38 µM.
Same read-out and setting: to `O=C(N/N=C/c1ccccn1)c1cc2ccccc2oc1=O` belongs 1.1 to 36 µM.
The compound `O=C(N/N=C/c1ccccc1[N+](=O)[O-])c1cc2ccccc2oc1=O` returned an IC50 of 1.1 to 36 µM.
Same read-out and setting: to `Nc1nnc(-c2cc3ccccc3cc2O)s1` belongs 2.3 to 38 µM; to `O=C(N/N=C/c1ccc([N+](=O)[O-])cc1)c1cc2ccccc2oc1=O`, 1.1 to 36 µM.
The same measure, in the same setting: to `O=C(N/N=C/c1ccccc1)c1cc2ccccc2oc1=O` belongs 1.1 to 36 µM; to `O=C(N/N=C/c1ccc(O)cc1O)c1cc2ccccc2oc1=O`, 1.1 to 36 µM.
Same read-out and setting: to `Nc1nnc(-c2ccc(Cl)cc2)s1` belongs 2.3 to 38 µM.
Consider `O=[N+]([O-])c1ccccc1/C=N/c1nnc(-c2ccc(Cl)cc2)s1`, for which the IC50 lay within 2.3 to 25 µM.
Same read-out and setting: in the case of `O=[N+]([O-])c1ccc(/C=N/c2nnc(-c3ccc(Cl)cc3)s2)cc1` it was 2.3 to 25 µM.
Same read-out and setting: to `Nc1nnc(-c2ccccc2[N+](=O)[O-])s1` belongs 2.3 to 38 µM; to `Nc1nnc(-c2ccc([N+](=O)[O-])cc2)s1`, 2.3 to 38 µM.
Still for that read-out and setting: to `O=C(N/N=C/c1ccc(F)cc1)c1cc2ccccc2oc1=O` belongs 1.1 to 36 µM.
`Clc1ccc(-c2nnc(/N=C/c3ccc(OCc4ccccc4)cc3)s2)cc1` gave an IC50 of 2.3 to 25 µM.
Same read-out and setting: in the case of `Nc1nnc(-c2ccc(Cl)cc2Cl)s1` it was 2.3 to 38 µM; in that of `COc1ccc(/C=N/NC(=O)c2cc3ccccc3oc2=O)c(O)c1`, 1.1 to 36 µM.
The same measure, in the same setting: in the case of `COc1ccc(Br)cc1/C=N/c1nnc(-c2ccc(Cl)cc2)s1` it was 2.3 to 25 µM; in that of `COc1ccc(O)c(/C=N/NC(=O)c2cc3ccccc3oc2=O)c1`, 1.1 to 36 µM; in that of `Cc1cccc(/C=N/NC(=O)c2cc3ccccc3oc2=O)c1`, 1.1 to 36 µM.
Still for that read-out and setting: to `Nc1nnc(-c2ccc(O)cc2)s1` belongs 2.3 µM; to `Cc1ccc(/C=N/NC(=O)c2cc3ccccc3oc2=O)cc1`, 1.1 to 36 µM; to `COc1ccc(Br)cc1-c1nnc(N)s1`, 2.3 to 38 µM.
`O=C(N/N=C/c1cccc(O)c1O)c1cc2ccccc2oc1=O` came in with an IC50 of 1.1 µM.
`COc1ccc(Br)cc1/C=N/c1nnc(-c2cccc([N+](=O)[O-])c2)s1`: the IC50 lay within 2.3 to 25 µM.
Take `Clc1ccc(-c2nnc(/N=C/c3ccc(Cl)cc3Cl)s2)cc1`: the IC50 is 2.3 to 25 µM.
The same measure, in the same setting: to `Nc1nnc(-c2cccc([N+](=O)[O-])c2)s1` belongs 2.3 to 38 µM.
On the same count and under the same terms, to `CN(C)c1ccc(-c2nnc(N)s2)cc1` belongs 2.3 to 38 µM.
The same measure, in the same setting: to `Nc1nnc(-c2c3ccccc3cc3ccccc23)s1` belongs 2.3 to 38 µM.
Compound `COc1ccc(/C=N/NC(=O)c2cc3ccccc3oc2=O)cc1` yielded a half-maximal inhibitory concentration (IC50) of 1.1 to 36 µM.
On the same count and under the same terms, in the case of `Nc1nnc(-c2ccc(Cl)c(OCc3ccccc3)c2)s1` it was 2.3 to 38 µM; in that of `O=C(N/N=C/c1cccc(F)c1)c1cc2ccccc2oc1=O`, 1.1 to 36 µM.
Same read-out and setting: to `O=[N+]([O-])c1cccc(-c2nnc(/N=C/c3ccc(Cl)cc3Cl)s2)c1` belongs 2.3 to 25 µM.
On the same count and under the same terms, to `COc1cc(-c2nnc(/N=C/c3ccc(O)cc3)s2)ccc1OCc1ccccc1` belongs 2.3 to 25 µM.

The next test deals with T1, Alpha glucosidase. The experiment in a line: Inhibition of alpha-glucosidase (unknown origin) using p-nitrophenyl-alpha-d-glucopyranoside as substrate preincubated for 15 mins followed by substrate addition measured after 30 mins by spectrophotometric analysis. It counts as protein assay.
Take `Clc1ccccc1CSc1nc(-c2ccc(Br)cc2)cc(-c2cccc(Br)c2)n1`: the IC50 was in the range of 19 to 38 µM.
Still for that read-out and setting: to `Clc1ccc2sc(SCc3cn(Cc4ccccc4)nn3)nc2c1` belongs 20 to 61 µM; to `Fc1cccc(CSc2nc(-c3ccc(Br)cc3)cc(-c3ccc(Br)cc3)n2)c1`, 19 to 38 µM.
`Fc1cccc(Cn2cc(CSc3nc4cc(Cl)ccc4s3)nn2)c1` displayed an IC50 of 20 to 61 µM.
Still for that read-out and setting: in the case of `Brc1ccccc1Cn1cc(CSc2nc3ccccc3s2)nn1` it was 20 to 61 µM; in that of `O=C(COc1ccc2ccc(=O)oc2c1)N/N=C1\C(=O)N(Cc2ccccc2F)c2ccc(Cl)cc21`, 2.5 µM.
Regarding `Cc1ccc(-c2cc(-c3ccc(Br)cc3)nc(SCc3ccc(Cl)cc3)n2)cc1`, the IC50 is 19 to 38 µM.
Same read-out and setting: in the case of `Clc1ccc(Cn2cc(CSc3nc4ccccc4s3)nn2)cc1` it was 20 to 61 µM; in that of `Clc1ccc2sc(SCc3cn(Cc4ccccc4Br)nn3)nc2c1`, 20 to 61 µM.
Same read-out and setting: to `Clc1ccc(Cn2cc(CSc3nc4cc(Cl)ccc4s3)nn2)cc1` belongs 20 to 61 µM; to `CC(C)(C)c1ccc(Cn2cc(CSc3nc4cc(Cl)ccc4s3)nn2)cc1`, 20 µM; to `Brc1ccc(Cn2cc(CSc3nc4ccccc4s3)nn2)cc1`, 20 to 61 µM.
For the compound `Cc1ccc(-c2cc(-c3ccc(Br)cc3)nc(SCc3ccccc3Br)n2)cc1`, the 50% inhibitory concentration (IC50) lay within 19 to 38 µM.
On the same count and under the same terms, in the case of `Fc1cccc(CSc2nc(-c3ccc(Br)cc3)cc(-c3cccc(Br)c3)n2)c1` it was 19 to 38 µM; in that of `Clc1ccc2sc(SCc3cn(Cc4ccccc4Cl)nn3)nc2c1`, 20 to 61 µM.
On the same count and under the same terms, in the case of `Fc1ccc(Cn2cc(CSc3nc4cc(Cl)ccc4s3)nn2)cc1` it was 20 to 61 µM; in that of `Fc1ccccc1CSc1nc(-c2ccc(Br)cc2)cc(-c2ccc(Br)cc2)n1`, 19 to 38 µM.
Still for that read-out and setting: in the case of `Cc1ccc(-c2cc(-c3cccc(Br)c3)nc(SCc3ccc(F)cc3)n2)cc1` it was 19 to 38 µM; in that of `CC(C)(C)c1ccc(Cn2cc(CSc3nc4ccccc4s3)nn2)cc1`, 20 to 61 µM; in that of `Fc1ccc(CSc2nc(-c3ccc(Br)cc3)cc(-c3ccc(Br)cc3)n2)cc1`, 19 to 38 µM.
In turn, `Clc1ccccc1CSc1nc(-c2ccc(Br)cc2)cc(-c2ccc(Br)cc2)n1` came in with an IC50 of 19 to 38 µM.
Same read-out and setting: in the case of `Clc1cc(Cl)cc(Cn2cc(CSc3nc4ccccc4s3)nn2)c1` it was 20 to 61 µM; in that of `Cc1ccc(-c2cc(-c3cccc(Br)c3)nc(SCc3cccc(F)c3)n2)cc1`, 19 to 38 µM; in that of `Clc1ccc(CSc2nc(-c3ccc(Br)cc3)cc(-c3ccc(Br)cc3)n2)cc1`, 19 to 38 µM.
As to `Fc1cccc(Cn2cc(CSc3nc4ccccc4s3)nn2)c1`, the IC50 lay in the range of 20 to 61 µM.
Same read-out and setting: to `Clc1cc(Cl)cc(Cn2cc(CSc3nc4cc(Cl)ccc4s3)nn2)c1` belongs 20 to 61 µM; to `Cc1ccc(-c2cc(-c3cccc(Br)c3)nc(SCc3ccccc3Cl)n2)cc1`, 19 to 38 µM; to `Clc1ccc2sc(SCc3cn(Cc4ccc(Br)cc4)nn3)nc2c1`, 20 to 61 µM.
Same read-out and setting: to `Fc1ccccc1Cn1cc(CSc2nc3cc(Cl)ccc3s2)nn1` belongs 20 to 61 µM.

A further test concerns the target T1, Alpha glucosidase. The experiment in a line: Inhibition of alpha-glucosidase (unknown origin) using p-nitro phenyl glucopyranoside as substrate preincubated for 5 mins followed by substrate addition measured after 30 mins. The test is classed as protein assay.
The compound `CN(C)c1ccc(C(Nc2ccc(-c3ccc(NC(c4ccc(N(C)C)cc4)n4nc(-c5cc(=O)oc6ccccc56)oc4=S)cc3)cc2)n2nc(-c3cc4ccccc4oc3=O)oc2=S)cc1` (centres undefined) had an IC50 of 0.07 to 0.76 µM.
`O=c1cc(-c2nn(C(Nc3ccc(NC(c4cccc(Br)c4)n4nc(-c5cc6ccccc6oc5=O)oc4=S)cc3)c3cccc(Br)c3)c(=S)o2)c2ccccc2o1` (centres undefined): the IC50 lay within 0.07 to 0.76 µM.
In turn, `O=c1cc(-c2nn(C(Nc3ccc(-c4ccc(NC(c5cccc(Cl)c5)n5nc(-c6cc7ccccc7oc6=O)oc5=S)cc4)cc3)c3cccc(Cl)c3)c(=S)o2)c2ccccc2o1` (centres undefined) came in with an IC50 of 0.07 to 0.76 µM.

Biological target in the next test: not listed separately
The experiment in a line: Inhibition of yeast alpha-glucosidase using p-nitrophenyl-alpha-d-glucopyranoside as substrate preincubated for 10 mins followed by substrate addition measured after 30 mins. Set-up: species or system Saccharomyces cerevisiae.
For `Cc1cc2nc(-c3ccc(C(=O)N/N=C/c4ccc(Cl)cc4)cc3)[nH]c2cc1C`, the IC50 was in the range of 8.4 to 179 µM.
